Values quoted from earlier work, collected in PMC11923636, “Synthesis, Pharmacological Evaluation, and Molecular Modeling of Phthalimide Derivatives as Monoamine Oxidase and Cholinesterase Dual Inhibitors” (ACS Omega, 2025).

Tested on: MAO-B
Conditions: weak inhibition compared to the standard; ref number not given; cited from earlier work

N-benzylphthalimide [V]
IC50: 10.5 µM
